From patent publication US20260224524A1, “A PHARMACEUTICAL COMPOSITION TARGETING MUTANT P53 AND HER2” (DR DOZO LABORATORIES, priority 2023, published 2026)
Values after ≈ are worked out from the molar mass of the structure shown.

What was measured:
[1] = tested on: Human Breast Cancer Cell Line MDA-MB-231; assay: Growth inhibition (% control growth, LC50, TGI, GI50) MDA-MB-231; format: cell-based
Procedure: The therapeutic effect of […] (peak 5) and SA2 (peak 4) is evaluated against human […] cancer cell line MDA-MB-231 by calculating the percentage growth inhibition, drug concentration of test compound needed to inhibit cell growth by 50% (GI50) values.
The therapeutic effect of SACC is evaluated against human […] cancer cell lines MDA-MB-231 by calculating the percentage growth inhibition, drug concentration of test compound needed to inhibit cell growth by 50% (GI50) values.

[2] = tested on: Human Lung Cancer Cell Line A-549; assay: Growth inhibition (% control growth, LC50, TGI, GI50) A-549; format: cell-based
Procedure: The therapeutic effect of SA1 (peak 5) and SA2 (peak 4) is evaluated against human lung cancer cell line A-549 by calculating the percentage growth inhibition, drug concentration of test compound needed to inhibit cell growth by 50% (GI50) values.
The therapeutic effect of SACC is evaluated against human lung cancer cell line A-549 by calculating the percentage growth inhibition, drug concentration of test compound needed to inhibit cell growth by 50% (GI50) values.

[3] = tested on: Human Pancreatic Cancer Cell Line Mia-Pa-Ca-2; assay: Growth inhibition (% control growth, LC50, TGI, GI50) Mia-Pa-Ca-2; format: cell-based; conditions: for GI50: Homo sapiens
Procedure: The therapeutic effect of SA1 (peak 5) and SA2 (peak 4) is evaluated against human pancreatic cancer cell line Mia-Pa-Ca-2 by calculating the percentage growth inhibition, drug concentration of test compound needed to inhibit cell growth by 50% (GI50) values.
The therapeutic effect of SACC is evaluated against human […] cancer cell line Mia-Pa-Ca-2 by calculating the percentage growth inhibition, drug concentration of test compound needed to inhibit cell growth by 50% (GI50) values.

[4] = Human tumour xenograft MDA-MB-231 model, survival; format: in vivo; conditions: for % Survival: Group B, 2.5 mg/kg i.v. day 1, 5, 9
Procedure: (§1) The therapeutic effect of SACC is evaluated against triple-negative breast cancer cell line MDA-MB-231 by analysing tumour volume and relative tumour volume. The study involved the use of six mice. These mice were administrated treatment according to the following Groups: […]

[5] = Human tumour xenograft MDA-MB-231 model, animal body weight; format: in vivo, mice; conditions: for Animal Body Weight: Group B, 2.5 mg/kg i.v. day 1, 5, 9
Procedure: as §1

[6] = tested on: Human Breast Cancer Cell Line MDA-MB-231; assay: Growth inhibition (% control growth, LC50, TGI, GI50) MDA-MB-231; format: cell-based; remark: listed apart in the source

SMILES: COc1cccc2c1C(=O)c1c(O)c3c(c(O)c1C2=O)C[C@@](O)(C(=O)CO)C[C@@H]3O[C@H]1C[C@H](N)[C@H](O)[C@H](C)O1 [ADR, Adriamycin]
- % Control Growth ([1]; 10 μg/ml, Average Values): −88.7%
- % Control Growth ([1]; 10 μg/ml, Experiment 1): −90.5%
- % Control Growth ([1]; 10 μg/ml, Experiment 3): −86.3%
- % Control Growth ([1]; 20 μg/ml, Average Values): −83.1%
- % Control Growth ([1]; 20 μg/ml, Experiment 2): −84.8%
- % Control Growth ([1]; 20 μg/ml, Experiment 3): −79.3%
- % Control Growth ([1]; 40 μg/ml, Average Values): −81.2%
- % Control Growth ([1]; 40 μg/ml, Experiment 2): −82.5%
- % Control Growth ([1]; 40 μg/ml, Experiment 3): −80.2%
- % Control Growth ([1]; 80 μg/ml, Average Values): −74.8%
- % Control Growth ([1]; 80 μg/ml, Experiment 1): −75.2%
- % Control Growth ([1]; 80 μg/ml, Experiment 2): −78.1%
- % Control Growth ([1]; 10^−4M, Average Values): −69.1%
- % Control Growth ([1]; 10^−4M, Experiment 1): −68.3%
- % Control Growth ([1]; 10^−4M, Experiment 2): −69.6%
- % Control Growth ([1]; 10^−4M, Experiment 3): −69.4%
- % Control Growth ([1]; 10^−5M, Average Values): −82.4%
- % Control Growth ([1]; 10^−5M, Experiment 1): −80.5%
- % Control Growth ([1]; 10^−5M, Experiment 2): −83.4%
- % Control Growth ([1]; 10^−5M, Experiment 3): −83.3%
- % Control Growth ([1]; 10^−6M, Average Values): −85.0%
- % Control Growth ([1]; 10^−6M, Experiment 1): −83.1%
- % Control Growth ([1]; 10^−6M, Experiment 2): −86.2%
- % Control Growth ([1]; 10^−6M, Experiment 3): −85.8%
- % Control Growth ([1]; 10^−7M, Average Values): −87.8%
- % Control Growth ([1]; 10^−7M, Experiment 1): −82.8%
- % Control Growth ([1]; 10^−7M, Experiment 2): −91.0%
- % Control Growth ([1]; 10^−7M, Experiment 3): −89.6%
- GI50 ([1]; Homo sapiens, calculated from graph): < 10 µg/mL
- TGI ([1]; calculated from graph): <10 µg/mL
- % Control Growth ([2]; A-549, 10 μg/ml, Average Values): −26.5%
- % Control Growth ([2]; A-549, 10 μg/ml, Experiment 1): −23.5%
- % Control Growth ([2]; A-549, 10 μg/ml, Experiment 2): −29.5%
- % Control Growth ([2]; A-549, 10 μg/ml, Experiment 3): −26.5%
- % Control Growth ([2]; A-549, 20 μg/ml, Average Values): −30.8%
- % Control Growth ([2]; A-549, 20 μg/ml, Experiment 1): −28.2%
- % Control Growth ([2]; A-549, 20 μg/ml, Experiment 2): −33.8%
- % Control Growth ([2]; A-549, 20 μg/ml, Experiment 3): −30.4%
- % Control Growth ([2]; A-549, 40 μg/ml, Average Values): −46.0%
- % Control Growth ([2]; A-549, 40 μg/ml, Experiment 1): −45.0%
- % Control Growth ([2]; A-549, 40 μg/ml, Experiment 2): −48.7%
- % Control Growth ([2]; A-549, 40 μg/ml, Experiment 3): −44.2%
- % Control Growth ([2]; A-549, 80 μg/ml, Average Values): −50.0%
- % Control Growth ([2]; A-549, 80 μg/ml, Experiment 1): −49.4%
- % Control Growth ([2]; A-549, 80 μg/ml, Experiment 2): −51.0%
- % Control Growth ([2]; A-549, 80 μg/ml, Experiment 3): −49.4%
- % Control Growth ([2]; A-549, 10^−4M, Average Values): −43.0%
- % Control Growth ([2]; A-549, 10^−4M, Experiment 1): 36.5%
- % Control Growth ([2]; A-549, 10^−4M, Experiment 2): 44.4%
- % Control Growth ([2]; A-549, 10^−4M, Experiment 3): −48.1%
- % Control Growth ([2]; A-549, 10^−5M, Average Values): −34.9%
- % Control Growth ([2]; A-549, 10^−5M, Experiment 1): −30.6%
- % Control Growth ([2]; A-549, 10^−5M, Experiment 2): −33.8%
- % Control Growth ([2]; A-549, 10^−5M, Experiment 3): −40.3%
- % Control Growth ([2]; A-549, 10^−6M, Average Values): −4.0%
- % Control Growth ([2]; A-549, 10^−6M, Experiment 1): 10.2%
- % Control Growth ([2]; A-549, 10^−6M, Experiment 2): −11.3%
- % Control Growth ([2]; A-549, 10^−6M, Experiment 3): −11.0%
- % Control Growth ([2]; A-549, 10^−7M, Average Values): 12.4%
- % Control Growth ([2]; A-549, 10^−7M, Experiment 1): 53.2%
- % Control Growth ([2]; A-549, 10^−7M, Experiment 2): 15.9%
- % Control Growth ([2]; A-549, 10^−7M, Experiment 3): −32.0%
- TGI ([2]; A-549, Molar drug concentrations calculated from graph): 4.143 µg/mL (≈ 7.62 µM)
- TGI ([2]; A-549, calculated from graph): <10 µg/mL
- GI50 ([2]; Homo sapiens, A549, A-549, calculated from graph): < 10 µg/mL
- CC50 ([2]; Homo sapiens, A549, read-out: LC50, A-549, calculated from graph): 72 µg/mL (≈ 132 µM)
- GI50 ([2]; Homo sapiens, A549, A-549, Molar drug concentrations calculated from graph): 1.2 µg/mL (≈ 2.21 µM)
- GI50 ([3]; MIA PaCa-2, Mia-Pa-Ca-2, calculated from graph): < 10 µg/mL
- GI50 ([3]; MIA PaCa-2, Mia-Pa-Ca-2, Molar drug concentrations calculated from graph): 4.75 µg/mL (≈ 8.74 µM)
- % Control Growth ([3]; Mia-Pa-Ca-2, 10 μg/ml, Average Values): −89.7%
- % Control Growth ([3]; Mia-Pa-Ca-2, 10 μg/ml, Experiment 1): −88.7%
- % Control Growth ([3]; Mia-Pa-Ca-2, 10 μg/ml, Experiment 2): −89.2%
- % Control Growth ([3]; Mia-Pa-Ca-2, 10 μg/ml, Experiment 3): −91.2%
- % Control Growth ([3]; Mia-Pa-Ca-2, 20 μg/ml, Average Values): −91.1%
- % Control Growth ([3]; Mia-Pa-Ca-2, 20 μg/ml, Experiment 1): −91.3%
- % Control Growth ([3]; Mia-Pa-Ca-2, 20 μg/ml, Experiment 2): −90.4%
- % Control Growth ([3]; Mia-Pa-Ca-2, 20 μg/ml, Experiment 3): −91.5%
- % Control Growth ([3]; Mia-Pa-Ca-2, 40 μg/ml, Average Values): −91.5%
- % Control Growth ([3]; Mia-Pa-Ca-2, 40 μg/ml, Experiment 1): −91.4%
- % Control Growth ([3]; Mia-Pa-Ca-2, 40 μg/ml, Experiment 2): −92.3%
- % Control Growth ([3]; Mia-Pa-Ca-2, 40 μg/ml, Experiment 3): −91.0%
- % Control Growth ([3]; Mia-Pa-Ca-2, 80 μg/ml, Average Values): −84.7%
- % Control Growth ([3]; Mia-Pa-Ca-2, 80 μg/ml, Experiment 1): −84.1%
- % Control Growth ([3]; Mia-Pa-Ca-2, 80 μg/ml, Experiment 2): −87.5%
- % Control Growth ([3]; Mia-Pa-Ca-2, 80 μg/ml, Experiment 3): −82.3%
- % Control Growth ([3]; Mia-Pa-Ca-2, 10^−4M, Average Values): −89.6%
- % Control Growth ([3]; Mia-Pa-Ca-2, 10^−4M, Experiment 1): −88.2%
- % Control Growth ([3]; Mia-Pa-Ca-2, 10^−4M, Experiment 2): −89.7%
- % Control Growth ([3]; Mia-Pa-Ca-2, 10^−4M, Experiment 3): −91.0%
- % Control Growth ([3]; Mia-Pa-Ca-2, 10^−5M, Average Values): −87.8%
- % Control Growth ([3]; Mia-Pa-Ca-2, 10^−5M, Experiment 1): −88.7%
- % Control Growth ([3]; Mia-Pa-Ca-2, 10^−5M, Experiment 2): −87.4%
- % Control Growth ([3]; Mia-Pa-Ca-2, 10^−5M, Experiment 3): −87.3%
- % Control Growth ([3]; Mia-Pa-Ca-2, 10^−6M, Average Values): −75.8%
- % Control Growth ([3]; Mia-Pa-Ca-2, 10^−6M, Experiment 1): −77.3%
- % Control Growth ([3]; Mia-Pa-Ca-2, 10^−6M, Experiment 2): −75.7%
- % Control Growth ([3]; Mia-Pa-Ca-2, 10^−6M, Experiment 3): −74.5%
- % Control Growth ([3]; Mia-Pa-Ca-2, 10^−7M, Average Values): −60.2%
- % Control Growth ([3]; Mia-Pa-Ca-2, 10^−7M, Experiment 1): −3.2%
- % Control Growth ([3]; Mia-Pa-Ca-2, 10^−7M, Experiment 2): −88.2%
- % Control Growth ([3]; Mia-Pa-Ca-2, 10^−7M, Experiment 3): −89.3%
- TGI ([3]; Mia-Pa-Ca-2, Molar drug concentrations calculated from graph): 4.69 µg/mL (≈ 8.63 µM)
- TGI ([3]; Mia-Pa-Ca-2, calculated from graph): <10 µg/mL
- % Survival ([4]; day 1): 100%
- % Survival ([4]; day 5): 100%
- % Survival ([4]; day 9): 100%
- % Survival ([4]; day 12): 100%
- % Survival ([4]; day 15): 100%
- % Survival ([4]; day 18): 100%
- % Survival ([4]; day 21): 100%
- % Survival ([4]; day 25): 100%
- % Survival ([4]; day 30): 83%
- survival rate ([4]; till 25 days): 100%
- Animal Body Weight ([5]; day 1): 20.9 Grams
- Animal Body Weight ([5]; day 5): 19.9 Grams
- Animal Body Weight ([5]; day 9): 20.3 Grams
- Animal Body Weight ([5]; day 12): 20.1 Grams
- Animal Body Weight ([5]; day 15): 19.5 Grams
- Animal Body Weight ([5]; day 18): 20.4 Grams
- Animal Body Weight ([5]; day 21): 20.0 Grams
- Animal Body Weight ([5]; day 25): 20.2 Grams
- Animal Body Weight ([5]; day 30): 21.6 Grams
- change in body weight (in words) ([5]; average body weight over 30 days): minimal change in body weight
- % Control Growth ([6]; 10 μg/ml, Experiment 2): −89.3%
- % Control Growth ([6]; 20 μg/ml, Experiment 1): −85.1%
- % Control Growth ([6]; 40 μg/ml, Experiment 1): −80.9%
- % Control Growth ([6]; 80 μg/ml, Experiment 3): −71.2%
